How the values were obtained:
[1] = system: patients with advanced solid tumors; test: Dose-limiting toxicity, MTD and recommended dose; format: in vivo
Experimental: (§1) CVL218 was administered orally, and this dose‐escalation trial included nine dose levels: 100 mg QD (50 mg BID), 200 mg QD (100 mg BID), 400 mg QD (200 mg BID), 700 mg QD (350 mg BID), 1000 mg QD (500 mg BID), 1200 mg QD (600 mg BID), 1400 mg QD (700 mg BID), 1700 mg QD (850 mg BID), and 2000 mg QD (1000 mg BID). Patients enrolled in the study received a single oral dose on the first day, followed by continuous multiple dosing (twice a day taking 12 h apart) after 72 h, with the treatment cycle lasting 4 weeks. The period during which patients received a single dose is designated as cycle 0 (C0), lasting 72 h. After this period, patients begin multiple dosing, referred to as cycle 1 (C1). An initial accelerated titration design was employed for the three lowest dose groups, and the “3+3” design was applied starting with the 300 mg BID cohort.
The primary objectives were to assess safety and tolerability as well as to determine the MTD, DLT, and dose recommended for further study. DLT was defined as any of the following events occurring during cycle 0 (including 72 h wash‐out period after a single dose) and cycle 1 per Common Terminology Criteria for Adverse Events (CTCAE) version 5.0: grade 4 anemia; grade 4 neutropenia; grade 3 neutropenia with fever ≥38.5°C; grade 4 thrombocytopenia; grade 3 thrombocytopenia associated with bleeding; grade ≥2 neurotoxicity; any other grade ≥3 nonhematological toxicities (excluding alopecia). The secondary objectives were to assess the PK and preliminary efficacy of CVL218.

[2] = Plasma PK after a single oral dose (Cycle 0 Day 1); format: in vivo, patients
Experimental: as §1
A clinical PK study of CVL218 was conducted, involving blood samples collection during single‐dose administration (before treatment and 0.5, 1, 2, 3, 4, 5, 6, 8, 10, 12, and 24 h after treatment on C0D1) and multiple dosing (before treatment and 0.5, 1, 2, 3, 4, 5, 6, 8, 10, and 12 h after treatment on C1D1; before treatment on C1D8, C1D15, and C1D22; before treatment and 0.5, 1, 2, 3, 4, 5, 6, 8, 10, and 12 h after treatment on C1D28)
Single‐dose and multiple‐dose PK parameters included C max, T max, elimination half‐life (T 1/2), AUC0– t , AUC0–inf, oral clearance (CL/F), and apparent volume of distribution (V z/F) for CVL218. Tumor response was assessed per RECIST 1.1. ORR was defined as proportion of patients with a CR or PR on at least one visit, while DCR was defined as proportion of patients with a CR or PR or SD. PFS was defined as the time from the first dose of either drug to investigator assessed radiologic PD or to death of any cause. PFS would be censored at the time of last tumor assessment.
Subjects who received at least one dose of CVL218 with postadministration safety records were included in safety analysis set. Subjects who received at least one dose of CVL218 with at least one evaluable PK parameter were included in PK analysis set. Per‐protocol set were used for efficacy analysis. Descriptive statistics of safety were presented per CTCAE v5.0. The PK parameters T max and T 1/2 were shown as the median (min, max) and mean ± SD, respectively. A two‐sided p < 0.05 was considered to indicate statistical significance. Statistical analysis was performed by using GraphPad prism 8.0.2 and R‐4.3.3.

[3] = single dose C0D1, 100mg QD, n 1
[4] = single dose C0D1, 200mg QD, n 1
[5] = single dose C0D1, 400mg QD, n 1
[6] = single dose C0D1, 700mg QD, n 4
[7] = single dose C0D1, 1000mg QD, n 4
[8] = single dose C0D1, 1200mg QD, n 4
[9] = single dose C0D1, 1400mg QD, n 6
[10] = single dose C0D1, 1700mg QD, n 5

CNCc1ccc(-c2cc3cc(F)cc(C(N)=O)c3o2)cc1.Cl [CVL218]
Any DLT ([1]; 50 mg BID (N = 1)): 0 n (%)
DLT: Increased creatinine ([1]; 50 mg BID (N = 1)): 0 n (%)
DLT: Renal failure ([1]; 50 mg BID (N = 1)): 0 n (%)
Any DLT ([1]; 100 mg BID (N = 1)): 0 n (%)
DLT: Increased creatinine ([1]; 100 mg BID (N = 1)): 0 n (%)
DLT: Renal failure ([1]; 100 mg BID (N = 1)): 0 n (%)
Any DLT ([1]; 200 mg BID (N = 1)): 0 n (%)
DLT: Increased creatinine ([1]; 200 mg BID (N = 1)): 0 n (%)
DLT: Renal failure ([1]; 200 mg BID (N = 1)): 0 n (%)
Any DLT ([1]; 350 mg BID (N = 4)): 0 n (%)
DLT: Increased creatinine ([1]; 350 mg BID (N = 4)): 0 n (%)
DLT: Renal failure ([1]; 350 mg BID (N = 4)): 0 n (%)
Any DLT ([1]; 500 mg BID (N = 4)): 0 n (%)
DLT: Increased creatinine ([1]; 500 mg BID (N = 4)): 0 n (%)
DLT: Renal failure ([1]; 500 mg BID (N = 4)): 0 n (%)
Any DLT ([1]; 600mg BID (N=4)): 0 n (%)
DLT: Increased creatinine ([1]; 600mg BID (N=4)): 0 n (%)
DLT: Renal failure ([1]; 600mg BID (N=4)): 0 n (%)
Any DLT ([1]; 700 mg BID (N = 6)): 1 (16.7) n (%)
DLT: Increased creatinine ([1]; 700 mg BID (N = 6)): 0 n (%)
DLT: Renal failure ([1]; 700 mg BID (N = 6)): 1 (16.7) n (%)
Any DLT ([1]; 850mg BID (N=5)): 2 (40.0) n (%)
DLT: Increased creatinine ([1]; 850mg BID (N=5)): 2 (40.0) n (%)
DLT: Renal failure ([1]; 850mg BID (N=5)): 0 n (%)
Any DLT ([1]; Overall (N=26)): 3 (11.5) n (%)
DLT: Increased creatinine ([1]; Overall (N=26)): 2 (7.7) n (%)
DLT: Renal failure ([1]; Overall (N=26)): 1 (3.8) n (%)
recommended dose for further study ([1]; oral): 700 mg BID
maximum tolerated dose (MTD) ([1]; oral, patients with advanced solid tumors): 700 mg BID
AUC0-inf, Geometric Mean [2, 3]: 231.0 ng·h/mL
AUC0-t, Geometric Mean [2, 3]: 207.0 ng·h/mL
Cl/F, Geometric Mean [2, 3]: 432000.0 mL/h
Cmax, Geometric Mean [2, 3]: 40.9 ng/mL
T1/2, Mean [2, 3]: 3.6 h
Vz/F, Geometric Mean [2, 3]: 2270000.0 mL
AUC0-inf, Geometric Mean [2, 4]: 1360.0 ng·h/mL
AUC0-t, Geometric Mean [2, 4]: 1310.0 ng·h/mL
Cl/F, Geometric Mean [2, 4]: 147000.0 mL/h
Cmax, Geometric Mean [2, 4]: 218.0 ng/mL
T1/2, Mean [2, 4]: 5.1 h
Vz/F, Geometric Mean [2, 4]: 1080000.0 mL
AUC0-inf, Geometric Mean [2, 5]: 2010.0 ng·h/mL
AUC0-t, Geometric Mean [2, 5]: 1900.0 ng·h/mL
Cl/F, Geometric Mean [2, 5]: 199000.0 mL/h
Cmax, Geometric Mean [2, 5]: 334.0 ng/mL
T1/2, Mean [2, 5]: 6.0 h
Vz/F, Geometric Mean [2, 5]: 1710000.0 mL
AUC0-inf, Geometric Mean [2, 6]: 3450.0 ng·h/mL
AUC0-t, Geometric Mean [2, 6]: 3260.0 ng·h/mL
Cl/F, Geometric Mean [2, 6]: 203000.0 mL/h
Cmax, Geometric Mean [2, 6]: 360.0 ng/mL
T1/2, Mean [2, 6]: 6.3 h
Vz/F, Geometric Mean [2, 6]: 1700000.0 mL
AUC0-inf, Geometric Mean [2, 7]: 4820.0 ng·h/mL
AUC0-t, Geometric Mean [2, 7]: 4095.0 ng·h/mL
Cl/F, Geometric Mean [2, 7]: 212000.0 mL/h
Cmax, Geometric Mean [2, 7]: 579.5 ng/mL
T1/2, Mean [2, 7]: 6.2 h
Vz/F, Geometric Mean [2, 7]: 2205000.0 mL
AUC0-inf, Geometric Mean [2, 8]: 4415.0 ng·h/mL
AUC0-t, Geometric Mean [2, 8]: 4175.0 ng·h/mL
Cl/F, Geometric Mean [2, 8]: 276000.0 mL/h
Cmax, Geometric Mean [2, 8]: 547.5 ng/mL
T1/2, Mean [2, 8]: 6.3 h
Vz/F, Geometric Mean [2, 8]: 2155000.0 mL
AUC0-inf, Geometric Mean [2, 9]: 5360.0 ng·h/mL
AUC0-t, Geometric Mean [2, 9]: 5190.0 ng·h/mL
Cl/F, Geometric Mean [2, 9]: 274500.0 mL/h
Cmax, Geometric Mean [2, 9]: 633.0 ng/mL
T1/2, Mean [2, 9]: 4.7 h
Vz/F, Geometric Mean [2, 9]: 1920000.0 mL
AUC0-inf, Geometric Mean [2, 10]: 4180.0 ng·h/mL
AUC0-t, Geometric Mean [2, 10]: 4070.0 ng·h/mL
Cl/F, Geometric Mean [2, 10]: 407000.0 mL/h
Cmax, Geometric Mean [2, 10]: 408.0 ng/mL
T1/2, Mean [2, 10]: 5.8 h
Vz/F, Geometric Mean [2, 10]: 2780000.0 mL
median Tmax ([2]; single dose, range over cohorts): 1 to 4 h
mean half-life ([2]; single oral dose, range over cohorts): 3.6 to 6.3 h

— paper PMC12238723, “Phase I Clinical Trial of CVL218, a Novel PARP1/2 Inhibitor, in Patients with Advanced Solid Tumors” (MedComm, 2025)
